Source: PubChem BioAssay (NCI)
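These data come from cells grown in 96-well plates and exposed to compound for 48 hours at five concentrations. The concentration for 50% growth inhibition is given as GI50. Definition used: TGI = concentration required for complete inhibition of growth.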

Columns and labels:
Assay in all cases: NCI anticancer screen, dose series, 48 h
T-47D breast = test system: T-47D breast
DU-145 prostate = test system: DU-145 prostate
PC-3 prostate = test system: PC-3 prostate
MDA-MB-435 = test system: MDA-MB-435
HL-60(TB) leukemia = test system: HL-60(TB) leukemia
BT-549 breast = test system: BT-549 breast
SW-620 colon = test system: SW-620 colon
SK-MEL-28 melanoma = test system: SK-MEL-28 melanoma
NCI/ADR-RES ovarian = test system: NCI/ADR-RES ovarian
ACHN renal = test system: ACHN renal
OVCAR-3 ovarian = test system: OVCAR-3 ovarian
NCI-H460 lung = test system: NCI-H460 lung
NCI-H23 lung = test system: NCI-H23 lung
K-562 leukemia = test system: K-562 leukemia
A498 renal = test system: A498 renal
RPMI-8226 leukemia = test system: RPMI-8226 leukemia
SR leukemia = test system: SR leukemia
EKVX NSCLC = test system: EKVX NSCLC
HCT-15 colon = test system: HCT-15 colon
SF-539 CNS = test system: SF-539 CNS
786-0 renal = test system: 786-0 renal
MDA-MB-231 breast = test system: MDA-MB-231 breast
MOLT-4 leukemia = test system: MOLT-4 leukemia
OVCAR-5 ovarian = test system: OVCAR-5 ovarian
SNB-19 CNS = test system: SNB-19 CNS
LOX IMVI melanoma = test system: LOX IMVI melanoma
UO-31 renal = test system: UO-31 renal
COLO 205 colon = test system: COLO 205 colon
HOP-92 NSCLC = test system: HOP-92 NSCLC
CAKI-1 renal = test system: CAKI-1 renal
NCI-H226 lung = test system: NCI-H226 lung
A549 NSCLC = test system: A549 NSCLC
OVCAR-8 ovarian = test system: OVCAR-8 ovarian
SF-295 CNS = test system: SF-295 CNS
SNB-75 CNS = test system: SNB-75 CNS
MALME-3M melanoma = test system: MALME-3M melanoma
SF-268 CNS = test system: SF-268 CNS
UACC-257 melanoma = test system: UACC-257 melanoma
TK-10 renal = test system: TK-10 renal
CCRF-CEM leukemia = test system: CCRF-CEM leukemia
OVCAR-4 ovarian = test system: OVCAR-4 ovarian
RXF 393 renal = test system: RXF 393 renal
SK-MEL-2 melanoma = test system: SK-MEL-2 melanoma
HOP-62 NSCLC = test system: HOP-62 NSCLC
HT29 colon = test system: HT29 colon
HCT-116 colon = test system: HCT-116 colon
MCF7 breast = test system: MCF7 breast
KM12 colon = test system: KM12 colon
IGROV1 ovarian = test system: IGROV1 ovarian
SK-OV-3 ovarian = test system: SK-OV-3 ovarian
SN12C renal = test system: SN12C renal
HCC-2998 colon = test system: HCC-2998 colon
NCI-H522 lung = test system: NCI-H522 lung
SK-MEL-5 melanoma = test system: SK-MEL-5 melanoma
U251 CNS = test system: U251 CNS
HS 578T breast = test system: HS 578T breast
UACC-62 melanoma = test system: UACC-62 melanoma
M14 melanoma = test system: M14 melanoma

COc1cc2c3c(n(CCCN4CCCC4)c(=O)c2cc1OC)-c1cc2c(cc1C3=O)OCO2
GI50 (T-47D breast): 4.7 µM
TGI (T-47D breast): 11.1 µM
GI50 (DU-145 prostate): 1.31 µM
TGI (DU-145 prostate): 2.58 µM
GI50 (PC-3 prostate): 1.47 µM
TGI (PC-3 prostate): 3.84 µM
GI50 (MDA-MB-435): 1.59 µM
TGI (MDA-MB-435): 3.12 µM
GI50 (HL-60(TB) leukemia): 0.677 µM
TGI (HL-60(TB) leukemia): 1.89 µM
GI50 (BT-549 breast): 1.4 µM
TGI (BT-549 breast): 3.49 µM
GI50 (SW-620 colon): 0.624 µM
TGI (SW-620 colon): 3.45 µM
GI50 (SK-MEL-28 melanoma): 1.71 µM
TGI (SK-MEL-28 melanoma): 3.38 µM
GI50 (NCI/ADR-RES ovarian): 1.35 µM
TGI (NCI/ADR-RES ovarian): 3.68 µM
GI50 (ACHN renal): 1.36 µM
TGI (ACHN renal): 2.67 µM
GI50 (OVCAR-3 ovarian): 1.57 µM
TGI (OVCAR-3 ovarian): 2.98 µM
GI50 (NCI-H460 lung): 0.206 µM
TGI (NCI-H460 lung): 2.24 µM
GI50 (NCI-H23 lung): 1.63 µM
TGI (NCI-H23 lung): 3.98 µM
GI50 (K-562 leukemia): 0.216 µM
TGI (K-562 leukemia): 0.895 µM
GI50 (A498 renal): 5.53 µM
TGI (A498 renal): 10.8 µM
GI50 (RPMI-8226 leukemia): 1.25 µM
TGI (RPMI-8226 leukemia): 4.5 µM
GI50 (SR leukemia): 0.0514 µM
TGI (SR leukemia): 0.59 µM
GI50 (EKVX NSCLC): 1.95 µM
TGI (EKVX NSCLC): 3.96 µM
GI50 (HCT-15 colon): 1.43 µM
TGI (HCT-15 colon): 3.1 µM
GI50 (SF-539 CNS): 1.32 µM
TGI (SF-539 CNS): 2.77 µM
GI50 (786-0 renal): 1.32 µM
TGI (786-0 renal): 2.9 µM
GI50 (MDA-MB-231 breast): 1.65 µM
TGI (MDA-MB-231 breast): 3.31 µM
GI50 (MOLT-4 leukemia): < 0.0179 µM
TGI (MOLT-4 leukemia): 1.61 µM
GI50 (OVCAR-5 ovarian): 1.9 µM
TGI (OVCAR-5 ovarian): 3.5 µM
GI50 (SNB-19 CNS): 1.54 µM
TGI (SNB-19 CNS): 3.72 µM
GI50 (LOX IMVI melanoma): 0.68 µM
TGI (LOX IMVI melanoma): 2.29 µM
GI50 (UO-31 renal): 1.43 µM
TGI (UO-31 renal): 2.85 µM
GI50 (COLO 205 colon): 1.11 µM
TGI (COLO 205 colon): 2.55 µM
GI50 (HOP-92 NSCLC): 1.93 µM
TGI (HOP-92 NSCLC): 3.94 µM
GI50 (CAKI-1 renal): 1.16 µM
TGI (CAKI-1 renal): 2.45 µM
GI50 (NCI-H226 lung): 5.87 µM
TGI (NCI-H226 lung): 20.5 µM
GI50 (A549 NSCLC): 1.4 µM
TGI (A549 NSCLC): 2.85 µM
GI50 (OVCAR-8 ovarian): 1.36 µM
TGI (OVCAR-8 ovarian): 3.09 µM
GI50 (SF-295 CNS): 0.223 µM
TGI (SF-295 CNS): 2.01 µM
GI50 (SNB-75 CNS): 0.286 µM
TGI (SNB-75 CNS): 1.96 µM
GI50 (MALME-3M melanoma): 1.5 µM
TGI (MALME-3M melanoma): 3.22 µM
GI50 (SF-268 CNS): 0.65 µM
TGI (SF-268 CNS): 2.37 µM
GI50 (UACC-257 melanoma): 1.49 µM
TGI (UACC-257 melanoma): 3.21 µM
GI50 (TK-10 renal): 1.93 µM
TGI (TK-10 renal): 3.46 µM
GI50 (CCRF-CEM leukemia): 0.0673 µM
TGI (CCRF-CEM leukemia): 2.31 µM
GI50 (OVCAR-4 ovarian): 1.77 µM
TGI (OVCAR-4 ovarian): 3.38 µM
GI50 (RXF 393 renal): 1.49 µM
TGI (RXF 393 renal): 2.95 µM
GI50 (SK-MEL-2 melanoma): 17.1 µM
TGI (SK-MEL-2 melanoma): 33.6 µM
GI50 (HOP-62 NSCLC): 0.65 µM
TGI (HOP-62 NSCLC): 2.46 µM
GI50 (HT29 colon): 1.32 µM
TGI (HT29 colon): 2.76 µM
GI50 (HCT-116 colon): 1.14 µM
TGI (HCT-116 colon): 2.69 µM
GI50 (MCF7 breast): 0.228 µM
TGI (MCF7 breast): 2.21 µM
GI50 (KM12 colon): 1.61 µM
TGI (KM12 colon): 3.23 µM
GI50 (IGROV1 ovarian): 1.42 µM
TGI (IGROV1 ovarian): 3.09 µM
GI50 (SK-OV-3 ovarian): 0.795 µM
TGI (SK-OV-3 ovarian): 2.46 µM
GI50 (SN12C renal): 1.65 µM
TGI (SN12C renal): 3.38 µM
GI50 (HCC-2998 colon): 1.38 µM
TGI (HCC-2998 colon): 2.8 µM
GI50 (NCI-H522 lung): 0.789 µM
TGI (NCI-H522 lung): 2.52 µM
GI50 (SK-MEL-5 melanoma): 4.25 µM
TGI (SK-MEL-5 melanoma): 9.12 µM
GI50 (U251 CNS): 1.18 µM
TGI (U251 CNS): 2.48 µM
GI50 (HS 578T breast): 2.03 µM
TGI (HS 578T breast): 5.08 µM
GI50 (UACC-62 melanoma): 1.48 µM
TGI (UACC-62 melanoma): 3.48 µM
GI50 (M14 melanoma): 1.5 µM
TGI (M14 melanoma): 3.01 µM
